From patent US8598339B2, “Withanolide isolated from Physalis longifolia and analogs and methods of use thereof” (University of Kansas, priority 2011, dated 2013) come the findings set out here.

For series [1], the system named is heat shock factor (HSF) / HSE-luciferase in Hs766T cells. In words: HSE-luciferase reporter, Hs766T. The format is cell-based. Details: dose or concentration left out as unconfirmed. The following applies: heat shock 42° C. 30 minutes; recovery 8 hours. How it is done: To monitor the activation of heat shock factor (HSF) and heat shock-mediated signal transduction pathways, Hs766T cells were transfected with a HSE-luciferase construct, then treated with 3 mM of the selected withanolides for 8 hours. The cells were heat shocked at 42° C. for 30 minutes and allowed to recover at 37° C. for 8 hours. Cells were lysed and luciferase activity was measured on a plate reader.
(In general: Reporter assays use an easily measured gene product as a stand-in for the process of interest.)

Series [2] deals with TT medullary thyroid cancer cells. In words: MTS cell viability assay, TT. The format is cell-based. Conditions: Table 1, 72-hour treatment. How it is done: Human carcinoid cells, NCI-H727 (ATCC, Manassas, Va.), were cultured under standard conditions. Squamous cell carcinoma of head and neck cells, MDA1986 (Myers, et al. (2002) Clin. Cancer Res. 8:293) and JMAR (Swan, et al. (2003) Oral Oncol. 39:648-55); and melanoma cells lines B16F10 (ATCC, Manassas, Va.) and SKMEL28 (CLS, Eppelheim, Germany) were cultured in DMEM medium supplemented with 10% heat-inactivated fetal bovine serum (Sigma-Aldrich, St. Louis, Mo.), 1×MEM-essential amino acid, 1×MEM vitamin, and penicillin/streptomycin (Sigma-Aldrich, St. Louis, Mo.) in a humid environment of 5% CO2 at 37° C. Activity of withanolides against DRO81-1 and TT medullary thyroid cancer cells was also determined.
Cells were cultured in 96 well plates at a concentration of 1-2×10^4 cells/mL. Cell viability was assessed with the nonradioactive cell proliferation MTS assay using Cell Titer 96AQUEOUS One Solution Reagent (PROMEGA, Madison, Wis.), according to the manufacturer's instruction. After a 72-hour treatment, 20 μL of Cell Titer 96AQUEOUS One Solution Reagent were added to each well and incubated for 3 hours at 37° C. 5% CO2, and formazan absorbance was measured at 490 nm.
Background: Tetrazolium dyes change colour on reduction, which living cells bring about.

Series [3] can be described thus: In vitro metabolism, mouse liver microsomes. It is filed as in vitro ADME, mouse (CD-1). Conditions: 1.0E-06 M. The method, then: The in vitro metabolism of […], as compared to known reference compounds, was analyzed using liver microsomes from human, dog (Beagle), rat (Sprague-Dawley) and mouse (CD-1). […] Results are from two independent tests.
The test system of series [4] is Salmonella typhimurium TA98. In words: Cytotoxicity in tester strain TA98 without S9. The format is cell-based.
Series [5] relates to Salmonella typhimurium TA1535. The experiment in a line: Cytotoxicity in tester strain TA1535 without S9. It is filed as cell-based.
Series [6] concerns HCC1937 cells. The experiment in a line: Clonogenic assay, HCC1937. The format is cell-based. The following applies: 1-2 μM; treated 24 hours, cultured two weeks.
In series [7] the test system is BT20 cells. In words: Cell cycle analysis, BT20. It is filed as cell-based. Conditions: 2 μM; 24-hour treatment.

In the case of `CC(=O)OCC1=C(C)C[C@H]([C@@H](C)C2CC[C@H]3[C@@H]4C[C@H]5O[C@]56[C@@H](OC(C)=O)C=CC(=O)[C@]6(COC(C)=O)[C@H]4CC[C@]23C)OC1=O` (stereo partly drawn) [Compound X003, 4,19,27-triacetyl X001], in series [1], the “heat shock-induced increase in luciferase activity” value is listed as “substantially reduced”.

`CC1=C(CO)C(=O)O[C@@H]([C@@H](C)C2CC[C@H]3[C@@H]4C[C@H]5O[C@]56[C@@H](O)C=CC(=O)[C@]6(CO)[C@H]4CC[C@]23C)C1` (stereo partly drawn) [Compound X001]: the IC50 in series [2] was 1.91 µM. For the same molecule, the “Mean % Parent Compound Remaining” value in series [3] is 29%. Moreover, the “Cytotoxicity (% of Control)” value in series [4] (1.0E−04 M) is given as 98 % of Control; in series [4] (1.0E−05 M), 86 % of Control; in series [4] (1.3E−06 M), 89 % of Control; in series [4] (2.5E−05 M), 86 % of Control; in series [4] (2.5E−06 M), 87 % of Control; in series [4] (5.0E−05 M), 85 % of Control. The “Cytotoxicity (% of Control)” value was 86 % of Control in series [4] (5.0E−06 M); 95 % of Control in series [4] (6.3E−07 M); 111 % of Control in series [5] (1.0E−04 M); 97 % of Control in series [5] (1.0E−05 M); 99 % of Control in series [5] (1.3E−06 M); 100 % of Control in series [5] (2.5E−05 M). Also, the “Cytotoxicity (% of Control)” value in series [5] (2.5E−06 M) was 97 % of Control; in series [5] (5.0E−05 M), 109 % of Control; in series [5] (5.0E−06 M), 98 % of Control; in series [5] (6.3E−07 M), 99 % of Control. In series [6], the colony formation entry was “strongly inhibited”. For the same molecule, in series [7], the cell cycle effect result is reported as “G2/M arrest”.

What is called IC50 is the midpoint of a concentration-inhibition curve.
